In patent publication US20120196828A1, “SENSITIZATION OF CANCER CELLS TO TREATMENT” (priority 2011, published 2012):
Values joined by “and” are separate entries in the source; they are usually repeats but may differ in a detail not shown here. Identical values can stand only once.

Experiments:
[1] = tested on: BxPC-3 Human Pancreas Tumor Xenograft; experiment: BxPC-3 human pancreas tumor xenograft model: tumor weight and tumor growth inhibition; assay type: in vivo, mouse
Description: Compounds tested in the experiment were as follows. […] A concentration of 4.8 mg/ml was formulated to deliver a 24 mg/kg dose at a 5 ml/kg dose volume when administered subcutaneously. […] Nab-paclitaxel was manufactured by Abraxis BioScience LLC (Bridgewater, N.J.) and diluted in a 0.9% NaCl solution to a concentration of 1.5 mg/ml to deliver 15 mg/kg, in a 10 ml/kg dose volume. All standard agent preparations were made fresh prior to their administration.
BxPC-3 cells were obtained and prepared as follows. The BxPC-3 pancreas tumor cell line was received from American Type Culture Collection (ATCC, Manassas, Va.). Cultures were maintained in RPMI 1640 medium (Hyclone, Logan, Utah) supplemented with 5% fetal bovine serum. The cells were housed in a 5% CO2 atmosphere. The cultures were expanded in tissue culture flasks at a 1:3 split ratio until a sufficient amount of cells were harvested.
(§1) All experiments were conducted on female athymic nude mice (Hsd:Athymic Nude-Foxn1nu) supplied by Harlan (Indianapolis, Ind.). Mice were received at four weeks of age, 12-15 grams in weight, and were acclimated for seven days prior to handling. The mice were housed in microisolator cages (Lab Products, Seaford, Del.) and maintained under specific pathogen-free conditions. All procedures were carried out under appropriate institutional guidelines for animal care.
BxPC-3 Human Pancreas Tumor Xenograft Model: Female athymic nude mice per treatment condition were inoculated subcutaneously in the right flank with 0.1 ml of a 50% RPMI 1640/50% Matrigel™ (BD Biosciences, Bedford, Mass.) mixture containing a suspension of BxPC-3 tumor cells (approximately 5×10^6 cells/mouse).
(§2) Seven days following inoculation, tumors were measured using calipers and tumor weight was calculated using the animal study management software, Study Director V.1.7.54 k (Study Log). See Britten C D, et al. Enhanced antitumor activity of 6-hydroxymethylacylfulvene in combination with irinotecan and 5-fluorouracil in the HT29 human colon tumor xenograft model. Cancer Res 59:1049-1053, 1999. […] Body weights were recorded when the mice were randomized and were taken twice weekly thereafter in conjunction with tumor measurements, on each of Days 1, 4, 8, 11, 15, 18, 22, 26, 30, 33, and 36.
(§3) The study was terminated when the vehicle control reached an endpoint of 1500 mg, on Day 36.
Mean tumor growth inhibition (TGI) was calculated utilizing Formula A below (deaths were not included in the TGI calculations).
All statistical analyses in the xenograft study were performed with GraphPad Prism® v4 software.

[2] = biological target: Receptor for Advanced Glycation End products (RAGE) / HMGB1 (Homo sapiens, UniProt Q15109); conditions: Rao et al. 2010; WO 2009/015183; cited from earlier work
[3] = Body weight, deaths and clinical observations in the BxPC-3 xenograft study
Description: as §1, §2, §3

[4] = tested on: metastatic pancreatic cancer; conditions: patients with metastatic pancreatic cancer; ODSH 4 mg/kg bolus then 0.375 mg/kg/hr infusion
Description: Subjects included in the trial are: patients diagnosed with metastatic pancreatic cancer. […] See also, Burris, H. A., et al., 1997, J. Clin. Oncol. 15(6):2403-13. […] J. Clin. Oncol. 30(1):15-20. Subjects in each arm of the trial are evaluated for time to tumor progression, weight loss, pain control, six-month survival rates, and overall survival.
Subjects included in the trial are: patients diagnosed with metastatic pancreatic cancer.
Next, 50 subjects are then randomly assigned to one of two arms: either a control or a treatment group.

[5] = biological target: anti-thrombin III (Homo sapiens, UniProt P01008); conditions: cited from earlier work
[6] = tested on: metastatic gastric cancer; conditions: patients with metastatic gastric cancer; ODSH with mDCF
Description: Subjects included in the trial are: patients diagnosed with metastatic gastric, including cancer at the gastroesophageal junction. […] Subjects in each arm of the trial are evaluated for time to tumor progression, weight loss, pain control, six-month survival rates, and overall survival.

[7] = ANOVA with Tukey's Multiple Comparison Test

anti-thrombin III, sequence (P01008 33-464, species assumed): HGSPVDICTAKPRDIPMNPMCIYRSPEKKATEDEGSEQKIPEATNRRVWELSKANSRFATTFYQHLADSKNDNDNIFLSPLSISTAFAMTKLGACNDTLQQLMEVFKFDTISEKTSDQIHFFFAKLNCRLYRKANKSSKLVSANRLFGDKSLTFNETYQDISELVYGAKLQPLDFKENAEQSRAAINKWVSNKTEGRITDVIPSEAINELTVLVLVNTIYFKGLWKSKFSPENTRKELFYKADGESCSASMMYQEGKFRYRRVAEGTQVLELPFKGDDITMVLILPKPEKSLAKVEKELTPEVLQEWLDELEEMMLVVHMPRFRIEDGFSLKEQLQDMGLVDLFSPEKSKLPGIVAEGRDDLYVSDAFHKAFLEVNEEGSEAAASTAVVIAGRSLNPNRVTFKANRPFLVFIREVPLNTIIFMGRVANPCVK
Receptor for Advanced Glycation End products (RAGE) / HMGB1, sequence (Q15109 23-344 limits assumed, species assumed): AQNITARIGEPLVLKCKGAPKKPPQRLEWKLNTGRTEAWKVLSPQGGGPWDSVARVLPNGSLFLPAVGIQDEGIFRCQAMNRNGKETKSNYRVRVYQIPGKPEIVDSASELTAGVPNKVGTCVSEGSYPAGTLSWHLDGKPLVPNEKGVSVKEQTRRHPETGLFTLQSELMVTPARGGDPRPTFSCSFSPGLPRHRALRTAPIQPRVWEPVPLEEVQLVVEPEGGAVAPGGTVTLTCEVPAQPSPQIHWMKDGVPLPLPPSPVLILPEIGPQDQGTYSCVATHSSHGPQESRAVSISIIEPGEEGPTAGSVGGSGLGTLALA

2-O, 3-O desulfated heparin [ODSH]
Difference in tumor weight on Day 26 compared to vehicle control [1, 7]: No significant difference | Difference in tumor weight on Day 36 compared to vehicle control [1, 7]: No significant difference | Mean tumor weight, Day 1 ([1]; Day 1 (randomization), group mean, dosing per Table 1): 122.4 mg | Median tumor weight, Day 1 ([1]; Day 1 (randomization), group median, dosing per Table 1): 22.9 mg | Tumor weight, individual mouse, Day 1 ([1]; Day 1 (randomization), individual mouse, dosing per Table 1 (ODSH 24, oxaliplatin 10, gemcitabine 80, nab-paclitaxel 15 mg/kg)): 140 mg and 116 mg and 172 mg and 94 mg and 131 mg and 106 mg and 125 mg and 143 mg and 129 mg | Mean tumor weight, Day 4 ([1]; Day 4, group mean, dosing per Table 1): 134.0 mg | Median tumor weight, Day 4 ([1]; Day 4, group median, dosing per Table 1): 28.6 mg | Tumor weight, individual mouse, Day 4 ([1]; Day 4, individual mouse, dosing per Table 1): 162 mg and 98 mg and 110 mg and 141 mg and 97 mg and 181 mg and 135 mg and 130 mg and 144 mg and 133 mg | Mean tumor weight, Day 8 ([1]; Day 8, group mean, dosing per Table 1): 146.0 mg | Median tumor weight, Day 8 ([1]; Day 8, group median, dosing per Table 1): 40.4 mg | Tumor weight, individual mouse, Day 8 ([1]; Day 8, individual mouse, dosing per Table 1): 218 mg and 118 mg and 144 mg and 183 mg and 125 mg and 222 mg and 126 mg and 155 mg and 157 mg and 148 mg | Mean tumor weight, Day 11 ([1]; Day 11, group mean, dosing per Table 1): 187.6 mg | Median tumor weight, Day 11 ([1]; Day 11, group median, dosing per Table 1): 162.1 mg | Tumor weight, individual mouse, Day 11 ([1]; Day 11, individual mouse, dosing per Table 1): 149 mg and 288 mg and 142 mg and 175 mg and 243 mg and 146 mg and 252 mg and 137 mg and 140 mg and 203 mg | Mean tumor weight, Day 15 ([1]; Day 15, group mean, dosing per Table 1): 263.0 mg | Median tumor weight, Day 15 ([1]; Day 15, group median, dosing per Table 1): 250.0 mg | Tumor weight, individual mouse, Day 15 ([1]; Day 15, individual mouse, dosing per Table 1): 206 mg and 340 mg and 224 mg and 263 mg and 348 mg and 237 mg and 321 mg and 208 mg and 218 mg and 264 mg | Mean tumor weight, Day 18 ([1]; Day 18, group mean, dosing per Table 1): 338.5 mg | Median tumor weight, Day 18 ([1]; Day 18, group median, dosing per Table 1): 304.7 mg | Tumor weight, individual mouse, Day 18 ([1]; Day 18, individual mouse, dosing per Table 1): 278 mg (2×) and 489 mg and 291 mg and 288 mg and 419 mg and 256 mg and 415 mg and 318 mg and 352 mg | Mean tumor weight, Day 22 ([1]; Day 22, group mean, dosing per Table 1): 453.8 mg | Median tumor weight, Day 22 ([1]; Day 22, group median, dosing per Table 1): 425.4 mg | Tumor weight, individual mouse, Day 22 ([1]; Day 22, individual mouse, dosing per Table 1): 358 mg and 622 mg and 360 mg and 400 mg and 556 mg and 402 mg and 551 mg and 449 mg and 326 mg and 515 mg | Mean tumor weight, Day 26 ([1]; Day 26, group mean, dosing per Table 1): 616.2 mg | Median tumor weight, Day 26 ([1]; Day 26, group median, dosing per Table 1): 551.3 mg | Tumor weight, individual mouse, Day 26 ([1]; Day 26, individual mouse, dosing per Table 1): 509 mg and 894 mg and 478 mg and 529 mg and 770 mg and 573 mg and 724 mg and 524 mg and 394 mg and 766 mg | Day 26 Tumor Weight ([1]; Day 26, mean ± Std Err, treatment administered until Day 26): 616.2 ± 50.9 mg | Day 26 % TGI ([1]; Day 26 vs Day 1, relative to vehicle control (Group 1), deaths not included): 11.5% and 11.5 (10/10) % | Mean tumor weight, Day 30 ([1]; Day 30, group mean of surviving mice, dosing per Table 1): 882.3 mg | Median tumor weight, Day 30 ([1]; Day 30, group median, dosing per Table 1): 856.4 mg | Tumor weight, individual mouse, Day 30 ([1]; Day 30, individual mouse, dosing per Table 1): 697 mg and 1,083 mg and 756 mg and 893 mg and 1,201 mg and 820 mg and 945 mg and 764 mg and 555 mg and 1,109 mg | Mean tumor weight, Day 33 ([1]; Day 33, group mean of surviving mice, dosing per Table 1): 1,038.6 mg | Median tumor weight, Day 33 ([1]; Day 33, group median, dosing per Table 1): 979.8 mg | Tumor weight, individual mouse, Day 33 ([1]; Day 33, individual mouse, dosing per Table 1): 908 mg and 1,218 mg and 999 mg and 961 mg (2×) and 1,309 mg and 1,087 mg and 871 mg and 733 mg and 1,340 mg | Day 36 Tumor Weight ([1]; Day 36, treatment administered until Day 35): 1270.1 ± 95.5 mg | Median tumor weight, Day 36 ([1]; Day 36, group median, dosing per Table 1): 1,151.5 mg | Tumor weight, individual mouse, Day 36 ([1]; Day 36, individual mouse, dosing per Table 1): 1,072 mg and 1,450 mg and 1,153 mg and 1,150 mg (2×) and 1,654 mg and 1,376 mg and 1,037 mg and 836 mg and 1,823 mg | Day 36 % TGI ([1]; Day 36 vs Day 1, relative to vehicle control (Group 1), deaths not included): 18.2% | Overall antitumor effect (summary statement) ([1]; xenograft model of human pancreatic cancer): inhibits tumor growth to a similar extent as treatment with gemcitabine | Binding of RAGE by HMGB1 and other RAGE ligands [2]: inhibit binding | Day 1 Average Weight ([3]; Day 1): 21.54 g | Day 4 Average Weight ([3]; Day 4): 21.18 g | Day 4 % Weight Loss or Gain ([3]; Day 4, vs starting weight): −1.67% | Day 8 Average Weight ([3]; Day 8): 21.18 g | Day 8 % Weight Loss or Gain ([3]; Day 8, vs starting weight): −1.67% | Day 11 Average Weight ([3]; Day 11): 20.95 g | Day 11 % Weight Loss or Gain ([3]; Day 11, vs starting weight): −2.74% | Day 15 Average Weight ([3]; Day 15): 21.08 g | Day 15 % Weight Loss or Gain ([3]; Day 15, vs starting weight): −2.14% | Day 18 Average Weight ([3]; Day 18): 21.04 g | Day 18 % Weight Loss or Gain ([3]; Day 18, vs starting weight): −2.32% | Day 22 Average Weight ([3]; Day 22): 22.53 g | Day 22 Average Weight ([3]; Day 22 (Table 12)): 21.56 g | Day 22 % Weight Loss or Gain ([3]; Day 22 (Table 12), vs starting weight): 0.09% | Day 22 % Weight Loss or Gain ([3]; Day 22, vs starting weight): 4.60% | Day 26 Average Weight ([3]; Day 26 (Table 12)): 22.14 g | Day 26 % Weight Loss or Gain ([3]; Day 26 (Table 12), vs starting weight): 2.79% | Day 30 % Weight Loss or Gain ([3]; Day 30, vs starting weight, groups 3 and 5 switched regimen from Day 26): 4.92% | Day 30 Average Weight ([3]; Day 30, groups 3 and 5 switched to gemcitabine + nab-paclitaxel regimen from Day 26): 22.60 g | Day 26 Average Weight ([3]; Table 13 Day 26): 22.46 g | Day 26 % Weight Loss or Gain ([3]; Table 13 Day 26, vs starting weight): 4.27% | Tolerability / toxicity of the regimen ([3]; athymic nude mice, dosing per Table 1): well-tolerated | Starting Weight ([3]; baseline body weight, female athymic nude mice, BxPC-3 xenograft study): 21.54 g | Maximum weight loss ([3]; body weight of mice): 2.7% | Day bruising of the abdomens was first observed ([3]; mouse, in vivo): 15 days | Day bruising of the tails was first observed ([3]; mouse, in vivo): 8 days | Day by which the mice recovered their weight ([3]; mouse, in vivo): ≤ 22 days | Day on which maximum weight loss was reached ([3]; mouse, in vivo): 11 days | Day swelling of the tail was first observed ([3]; mouse, in vivo): 11 days | Mice demonstrating bruising on the tails or abdomen (site of injection) ([3]; of ten mice): All ten | Mice demonstrating swelling of the tail ([3]; of ten mice): One of the ten | Deaths ([3]; total deaths on or before Day 26, N = 10 per group): 0 | Deaths ([3]; total deaths on or before Day 36, n = 10 per group): 0 | Therapeutic benefit of addition of ODSH to chemotherapy in pancreatic cancer [4]: therapeutic benefit | Kd [5]: ~339 µM | Kd for anti-thrombin III [5]: ~4000 µg/mL | Therapeutic benefit of addition of ODSH to chemotherapy in gastric cancer [6]: therapeutic benefit
